# From paper PMC11714206, “Massively Parallel Screening of Toll/Interleukin‐1 Receptor (TIR)‐Derived Peptides Reveals Multiple Toll‐Like Receptors (TLRs)‐Targeting Immunomodulatory Peptides” (Advanced Science, 2024)
# Biological target: T1, MyD88^TIR (Homo sapiens, UniProt Q99836)
# T1 construct: MyD88 (residues 148–296); 6xHis; made in house; host or cells: E. coli BL21 (DE3)
# Assay: T‐Surf phage library (P8 and P3) selection against MyD88^TIR, four rounds, NGS read counts
# Type: binding
# Details: for P3_MyD88 Rank (after) / P3_MyD88 Rank (before): P3 library; for P8_MyD88 Rank (after) / P8_MyD88 Rank (before): P8 library; for Population: 4th round of selection against MyD88 TIR, share of NGS reads
# Procedure, shortened: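 Coat TIR domain 5 µg mL^−1 overnight; block 0.2% BSA/PBS 1 h, 4 °C; add phage library 1 h, RT; wash ×4 PBS/0.5% Tween‐20; elute 100 mM HCl, neutralize Tris; amplify in TG1, PEG‐precipitate. Repeat to round 4; barcode PCR, NovaSeq, count reads.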
# [1] = selection against MyD88 TIR, rank by count after grouping
# [2] = selection against MyD88 TIR, rank by count before grouping
# [3] = 4R selection against MyD88, rank after grouping
# [4] = 4R selection against MyD88, rank before grouping
# [5] = selection against MyD88, rank after grouping
# [6] = selection against MyD88, rank before grouping
# [7] = P3_MyD88: rank by count after grouping
# [8] = P3_MyD88: rank by count before grouping
# [9] = selection against MyD88, rank by count after grouping
# [10] = selection against MyD88, rank by count before grouping
# [11] = P8_MyD88: rank by count after grouping
# [12] = P8_MyD88: rank by count before grouping
# [13] = P8_MyD88: rank by NGS read count after grouping
# [14] = P8_MyD88: rank by NGS read count before grouping
# T1 sequence (Q99836 148-296): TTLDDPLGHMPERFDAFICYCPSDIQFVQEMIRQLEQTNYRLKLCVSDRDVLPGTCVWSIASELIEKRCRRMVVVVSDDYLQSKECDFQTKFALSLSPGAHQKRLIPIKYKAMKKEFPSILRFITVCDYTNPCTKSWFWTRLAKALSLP
sequence,measurement,setting,value
RISAFHQQLVMALKERLP,P3_MyD88 Rank (after),[1],263
same,P3_MyD88 Rank (before),[2],1105
RISAFHQQLVMALNTQ,P3_MyD88 Rank (after),[3],614
same,P3_MyD88 Rank (before),[4],2599
RKGDLISDELRIPLEE,P3_MyD88 Rank (after),[5],526
same,P3_MyD88 Rank (before),[6],2656
RLLKWKEALHQFHSLVG,P3_MyD88 Rank (after),[1],277
same,P3_MyD88 Rank (before),[2],2580
RSFREGLWRLLELRKK,P3_MyD88 Rank (after),[3],629
same,P3_MyD88 Rank (before),[4],2693
RSFREGPWRLLELSKK,Rank (after),[7],414
same,Rank (before),[8],2694
RSFRKGLWRLLELSNK,Rank (after),[7],431
same,Rank (before),[8],2695
RSSAFQQQLVMALKAQ,P3_MyD88 Rank (after),[3],643
same,P3_MyD88 Rank (before),[4],2616
RTLFENLWESVYNISQ,P3_MyD88 Rank (after),[9],690
same,P3_MyD88 Rank (before),[10],2633
RTLLENLWASVDISHK,P3_MyD88 Rank (after),[9],732
same,P3_MyD88 Rank (before),[10],2643
RVAHEISTKMKIFATI,P3_MyD88 Rank (after),[5],559
same,P3_MyD88 Rank (before),[6],2682
RYIMPHPQELIQQKQP,P3_MyD88 Rank (after),[1],249
same,P3_MyD88 Rank (before),[2],2561
SAASDDFWDGLIRMIE,P8_MyD88 Rank (after),[5],502
same,P8_MyD88 Rank (before),[6],3704
SAAYDDIWERLNRMIE,Rank (after),[11],481
same,Rank (before),[12],3737
SAAYGDYWVRQIRMIE,Rank (after),[11],469
same,Rank (before),[12],3707
SAAYYEFGERLIGRVE,Rank (after),[13],873
same,Rank (before),[14],3705
SADYDDVGDRLIRMIE,Rank (after),[13],1024
same,Rank (before),[14],3747
SCFCEELCCVLELSKK,P3_MyD88 Rank (after),[3],656
same,P3_MyD88 Rank (before),[4],2938
SDLRVVDDGSVSPLAM,P3_MyD88 Rank (after),[9],711
same,P3_MyD88 Rank (before),[10],3005
SDLRVVEDGSVSPLEM,Rank (after),[7],104
same,Rank (before),[8],1178
SDVDHLTYLVRVRLCR,P8_MyD88 Rank (after),[9],728
same,P8_MyD88 Rank (before),[10],3748
SEDTRNNFLYHLYEAL,Rank (after),[11],100
same,Rank (before),[12],106
same,Population,P8_MyD88 pool: P8 T-Surf phage library,0.022%
SEIYATSPWALDVLVL,P3_MyD88 Rank (after),[5],508
same,P3_MyD88 Rank (before),[6],2953
SEKYAKSPWAKVGLVL,P3_MyD88 Rank (after),[5],548
same,P3_MyD88 Rank (before),[6],3001
SELCVVAEGSVSPLDM,P3_MyD88 Rank (after),[3],587
same,P3_MyD88 Rank (before),[4],3010
SELREVADGSVSPLEM,P3_MyD88 Rank (after),[1],192
same,P3_MyD88 Rank (before),[2],3063
SELREVVGGAVSQLVM,P3_MyD88 Rank (after),[5],575
same,P3_MyD88 Rank (before),[6],3061
SELRVEDDGSVIPLEM,P3_MyD88 Rank (after),[1],201
same,P3_MyD88 Rank (before),[2],3055
SELRVVDDGRVSPMAM,Rank (after),[7],464
same,Rank (before),[8],3019
SELRVVDDGSVSPLK,P3_MyD88 Rank (after),[1],210
same,P3_MyD88 Rank (before),[2],3038
SELRVVDDGSVSPLVT,Rank (after),[7],182
same,Rank (before),[8],3029
SELRVVDDGSVSPPNL,P3_MyD88 Rank (after),[5],570
same,P3_MyD88 Rank (before),[6],3040
SELRVVDDGSVSPRET,P3_MyD88 Rank (after),[9],741
same,P3_MyD88 Rank (before),[10],3045
SELRVVDKETDKIQTPLKNA,Rank (after),[7],412
same,Rank (before),[8],3051
SELSVVDDGSVSPLGM,Rank (after),[7],472
same,Rank (before),[8],3068
SEMRVVEDGSVSPLEM,P3_MyD88 Rank (after),[5],495
same,P3_MyD88 Rank (before),[6],3071
SENMRPARGRWMNWC,P3_MyD88 Rank (after),[3],654
same,P3_MyD88 Rank (before),[4],3000
SENYASSSWALTELVH,P3_MyD88 Rank (after),[9],723
same,P3_MyD88 Rank (before),[10],2958
SENYATRPWAPDELVL,P3_MyD88 Rank (after),[3],673
same,P3_MyD88 Rank (before),[4],2999
SENYATSAWALEELVL,P3_MyD88 Rank (after),[1],214
same,P3_MyD88 Rank (before),[2],2961
SENYATSPWALDELLIAIEE,P3_MyD88 Rank (after),[5],519
same,P3_MyD88 Rank (before),[6],2979
SENYATSPWALDELVP,Population,P3_MyD88 pool: P3 T-Surf phage library,0.00437%
SENYATSPWALDELVRIVEA,P3_MyD88 Rank (after),[1],258
same,P3_MyD88 Rank (before),[2],1170
SENYATSPWALEKAGKL,Rank (after),[7],423
same,Rank (before),[8],2984
SENYATSPWALKERLP,Rank (after),[7],133
same,Rank (before),[8],734
SENYATSPWALMNWC,P3_MyD88 Rank (after),[3],655
same,P3_MyD88 Rank (before),[4],2985
SENYATSPWALTELVH,P3_MyD88 Rank (after),[1],278
same,P3_MyD88 Rank (before),[2],2986
SENYATSPWAPELLR,P3_MyD88 Rank (after),[3],658
same,P3_MyD88 Rank (before),[4],2990
SENYATSPWRWMNWC,P3_MyD88 Rank (after),[5],541
same,P3_MyD88 Rank (before),[6],2992
